The target in this assay is PKMYT1 (Homo sapiens (Human), UniProt Q99640). In words: PKMYT1 HTRF Assay. The assay is classed as binding. Conditions: Tracer 178, GST-Tb; compound 10 μM to 0.5 nM; read-out: MYT1 HTRF IC50. The procedure:
Example A: PKMYT1 HTRF Assay
Compound serial dilution is performed by Echo, and the final concentrations vary from 10 μM to 0.5 nM. This was filled by the addition of 5 μL/well of Enzyme solution to the assay plate containing the compound. The plate was centrifuged at 1000 rpm for 1 minute, and incubate 15 minutes at 25 ? . Then 5 μL/well of tracer solution (Tracer 178) was added to initiate the reaction, and incubate for 60 minutes at 25° C. Next 5 μL GST-Tb was added into the assay plate, the plate was centrifuged at 1000 rpm for 1 minute, and incubate for 15 minutes at 25 ? . The assay plate was read on Envision.
For orientation: Time-resolved FRET reads energy transfer from a long-lived donor to a nearby acceptor.

We go through 23 compounds from patent US20250136596A1, “MEMBRANE-ASSOCIATED TYROSINE- AND THREONINE-SPECIFIC CDC2-INHIBITORY KINASE (PKMYT1) INHIBITORS AND USES THEREOF” (Insilico Medicine IP Limited, priority 2022, published 2025).

Sequence of PKMYT1 (Q99640 whole entry): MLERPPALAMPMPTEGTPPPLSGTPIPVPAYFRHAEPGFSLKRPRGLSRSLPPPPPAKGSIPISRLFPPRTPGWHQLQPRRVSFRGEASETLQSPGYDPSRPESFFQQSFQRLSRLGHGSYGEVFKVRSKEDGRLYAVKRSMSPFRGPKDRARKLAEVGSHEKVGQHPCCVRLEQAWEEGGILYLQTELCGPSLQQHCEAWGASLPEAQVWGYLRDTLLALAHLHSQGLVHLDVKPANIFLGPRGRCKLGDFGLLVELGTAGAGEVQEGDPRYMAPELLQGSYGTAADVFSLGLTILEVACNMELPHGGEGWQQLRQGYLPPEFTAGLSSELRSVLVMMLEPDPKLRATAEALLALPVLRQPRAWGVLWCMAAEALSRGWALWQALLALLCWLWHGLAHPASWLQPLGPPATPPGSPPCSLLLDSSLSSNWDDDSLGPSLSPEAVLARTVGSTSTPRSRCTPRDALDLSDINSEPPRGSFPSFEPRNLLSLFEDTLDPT

As for `Cc1ccc(O)c(C)c1-c1cnc2[nH]c(-c3cnc(N4CC(C(N)=O)C4)nc3)cc2c1C#N` [Example 71, (R)-1-(5-(4-cyano-5-(3-hydroxy-2,6-dimethylphenyl)-1H-pyrrolo[2,3-b]pyridin-2-yl)pyrimidin-2-yl)azetidine-3-carboxamide], the IC50 (as a rule, the concentration needed to halve the response being measured) was less than 10 nM.

For the compound `Cc1ccc(O)c(C)c1-c1cnc2[nH]c(-c3cnc(N4CCC(C(=O)O)C4)nc3)c(Cl)c2c1C#N` [Example 72, (R)-1-(5-((R)-3-chloro-4-cyano-5-(3-hydroxy-2,6-dimethylphenyl)-1H-pyrrolo[2,3-b]pyridin-2-yl)pyrimidin-2-yl)pyrrolidine-3-carboxylic acid], the IC50 was less than 10 nM.

Turning to `Cc1ccc(O)c(C)c1-c1cnc2[nH]c(-c3cnc(N4CCC(C(N)=O)C4)nc3)c(Cl)c2c1C#N` [Example 73, (S)-1-(5-((R)-3-chloro-4-cyano-5-(3-hydroxy-2,6-dimethylphenyl)-1H-pyrrolo[2,3-b]pyridin-2-yl)pyrimidin-2-yl)pyrrolidine-3-carboxamide], the IC50 is less than 10 nM.

As for `Cc1ccc(O)c(C)c1-c1cnc2[nH]c(-c3cnc(N4CCCC4CO)nc3)c(Cl)c2c1C#N` (centres unmarked) [Example 74, 3-chloro-5-(3-hydroxy-2,6-dimethylphenyl)-2-(2-(2-(hydroxymethyl)pyrrolidin-1-yl)pyrimidin-5-yl)-1H-pyrrolo[2,3-b]pyridine-4-carbonitrile], the IC50 is less than 10 nM.

Consider `COCCOc1ncc(-c2cc3c(C#N)c(-c4c(C)ccc(O)c4C)cnc3[nH]2)cn1` [Example 75, (R)-5-(3-hydroxy-2,6-dimethylphenyl)-2-(2-(2-methoxyethoxy)pyrimidin-5-yl)-1H-pyrrolo[2,3-b]pyridine-4-carbonitrile], for which the IC50 is less than 10 nM.

For `COCCOc1ncc(-c2[nH]c3ncc(-c4c(C)ccc(O)c4C)c(C#N)c3c2Cl)cn1` [Example 76, (R)-3-chloro-5-(3-hydroxy-2,6-dimethylphenyl)-2-(2-(2-methoxyethoxy)pyrimidin-5-yl)-1H-pyrrolo[2,3-b]pyridine-4-carbonitrile], the IC50 was less than 10 nM.

As for `Cc1ncc(-c2[nH]c3ncc(-c4c(C)ccc(O)c4C)c(C#N)c3c2Cl)c(C)n1` [Example 78, (R)-3-chloro-2-(2,4-dimethylpyrimidin-5-yl)-5-(3-hydroxy-2,6-dimethylphenyl)-1H-pyrrolo[2,3-b]pyridine-4-carbonitrile], the IC50 lay in the range of 50 to 500 nM.

Turning to `Cc1ncc(-c2[nH]c3ncc(-c4c(C)ccc(O)c4C)cc3c2Cl)cn1` [Example 79, 3-(3-chloro-2-(2-methylpyrimidin-5-yl)-1H-pyrrolo[2,3-b]pyridin-5-yl)-2,4-dimethylphenol], the IC50 lay in the range of 10 to 50 nM.

Take `Cc1ccc(O)c(C)c1-c1cnc2[nH]c(-c3cncnc3)cc2c1C#N` [Example 80, (R)-5-(3-hydroxy-2,6-dimethylphenyl)-2-(pyrimidin-5-yl)-1H-pyrrolo[2,3-b]pyridine-4-carbonitrile]: the IC50 was less than 10 nM.

Turning to `Cc1ccc(O)c(C)c1-c1cnc2[nH]c(-c3cnn(CCO)c3)cc2c1` [Example 81, 3-(2-(1-(2-hydroxyethyl)-1H-pyrazol-4-yl)-1H-pyrrolo[2,3-b]pyridin-5-yl)-2,4-dimethylphenol], the IC50 lay within 50 to 500 nM.

Take `Cc1ccc(O)c(C)c1-c1cnc2[nH]c(-c3cnc(N4CCOC4=O)nc3)c(Cl)c2c1C#N` [Example 82, (R)-3-chloro-5-(3-hydroxy-2,6-dimethylphenyl)-2-(2-(2-oxooxazolidin-3-yl)pyrimidin-5-yl)-1H-pyrrolo[2,3-b]pyridine-4-carbonitrile]: the IC50 was less than 10 nM.

Consider `Cc1ccc(O)c(C)c1-c1cnc2[nH]c(-c3cnc(OCC(O)CO)nc3)cc2c1C#N` [Example 83, (5R)-2-(2-(2,3-dihydroxypropoxy)pyrimidin-5-yl)-5-(3-hydroxy-2,6-dimethylphenyl)-1H-pyrrolo[2,3-b]pyridine-4-carbonitrile], for which the 50% inhibitory concentration (IC50) is less than 10 nM.

In the case of `Cc1ccc(O)c(C)c1-c1cnc2[nH]c(-c3cnc(N4CC[S@SP1](=O)(=O)CC4)nc3)c(Cl)c2c1C#N` [Example 84, (R)-3-chloro-2-(2-(1,1-dioxidothiomorpholino)pyrimidin-5-yl)-5-(3-hydroxy-2,6-dimethylphenyl)-1H-pyrrolo[2,3-b]pyridine-4-carbonitrile], the IC50 is less than 10 nM.

`Cc1ccc(O)c(C)c1-c1cnc2[nH]c(-c3cnc(OC(F)F)nc3)cc2c1C#N` [Example 85, 2-(2-(difluoromethoxy)pyrimidin-5-yl)-5-(3-hydroxy-2,6-dimethylphenyl)-1H-pyrrolo[2,3-b]pyridine-4-carbonitrile]: the half-inhibitory concentration (IC50) is less than 10 nM.

Turning to `Cc1ccc(O)c(C)c1-c1cnc2[nH]c(-c3cnc(C(C)(C)O)nc3)cc2c1C#N` [Example 86, 5-(3-hydroxy-2,6-dimethylphenyl)-2-(2-(2-hydroxypropan-2-yl)pyrimidin-5-yl)-1H-pyrrolo[2,3-b]pyridine-4-carbonitrile], the IC50 was less than 10 nM.

Consider `C#Cc1cc(-c2cc3c(C#N)c(-c4c(C)ccc(O)c4C)cnc3[nH]2)cnc1N` [Example 87, (R)-2-(6-amino-5-ethynylpyridin-3-yl)-5-(3-hydroxy-2,6-dimethylphenyl)-1H-pyrrolo[2,3-b]pyridine-4-carbonitrile], for which the IC50 was less than 10 nM.

As for `Cc1ccc(O)c(C)c1-c1cnc2[nH]c(-c3cnc(C(C)(C)O)nc3)cc2c1` [Example 88, 3-(2-(2-(2-hydroxypropan-2-yl)pyrimidin-5-yl)-1H-pyrrolo[2,3-b]pyridin-5-yl)-2,4-dimethylphenol], the IC50 was in the range of 10 to 50 nM.

For the compound `Cc1ccc(O)c(C)c1-c1cnc2[nH]c(-c3cncc(N4CCC(O)CC4)c3)cc2c1C#N` [Example 89, 5-(3-hydroxy-2,6-dimethylphenyl)-2-(5-(4-hydroxypiperidin-1-yl)pyridin-3-yl)-1H-pyrrolo[2,3-b]pyridine-4-carbonitrile], the IC50 is less than 10 nM.

For the compound `CCc1c(O)ccc(C)c1-c1cnc2[nH]c(-c3cnc(C)nc3)cc2c1C#N` [Example 90, 5-(2-ethyl-3-hydroxy-6-methylphenyl)-2-(2-methylpyrimidin-5-yl)-1H-pyrrolo[2,3-b]pyridine-4-carbonitrile], the IC50 fell in the range of 50 to 500 nM.

As for `CCc1c(O)ccc(C)c1-c1cnc2[nH]c(-c3cnc(C)nc3)cc2c1C#N` [Example 91, (R)-5-(2-ethyl-3-hydroxy-6-methylphenyl)-2-(2-methylpyrimidin-5-yl)-1H-pyrrolo[2,3-b]pyridine-4-carbonitrile], the IC50 was 10 to 50 nM.

Take `Cc1ncc(-c2cc3c(C#N)c(-c4c(C)ccc(O)c4C)cnc3[nH]2)c(N)n1` [Example 92, 2-(4-amino-2-methylpyrimidin-5-yl)-5-(3-hydroxy-2,6-dimethylphenyl)-1H-pyrrolo[2,3-b]pyridine-4-carbonitrile]: the IC50 was less than 10 nM.

On to `Cc1ccc(O)c(C)c1-c1cnc2[nH]c(-c3cnc(CN4CCCC4)nc3)cc2c1C#N` [Example 93, (R)-5-(3-hydroxy-2,6-dimethylphenyl)-2-(2-(pyrrolidin-1-ylmethyl)pyrimidin-5-yl)-1H-pyrrolo[2,3-b]pyridine-4-carbonitrile], for which the IC50 is less than 10 nM.

As for `Cc1ccc(O)c(C)c1-c1cnc2[nH]c(-c3cnc(CN4CC(F)(F)C4)nc3)cc2c1C#N` [Example 94, (R)-2-(2-((3,3-difluoroazetidin-1-yl)methyl)pyrimidin-5-yl)-5-(3-hydroxy-2,6-dimethylphenyl)-1H-pyrrolo[2,3-b]pyridine-4-carbonitrile], the IC50 is less than 10 nM.
